This is an account of results in patent US7157491B2, “Aryl-carbaldehyde oxime derivatives and their use as estrogenic agents” (Wyeth, priority 2003, dated 2007).

In general, melting point refers to the temperature, or range, at which the solid turns liquid. Usually IC50 stands for the midpoint of a concentration-inhibition curve. Lower therefore signals inhibition by little substance.

In data set [1] the target is T1, human ERβ (Homo sapiens, UniProt Q92731).
T1 construct: made in house; host or cells: E. coli
Put plainly: Competition with [3H]-17β-estradiol for binding to ERβ ligand binding domain (E. coli lysate). Particulars: 2 nM [3H]-17β-estradiol, 5-15 hours at room temperature; concentration that decreases total 17β-estradiol binding by 50%. As to the method: (§1) Representative examples of the invention were evaluated for their ability to compete with 17β-estradiol for both ERα and ERβ. This test procedure provides the methodology for one to determine whether a particular compound binds to the estrogen receptor (and is therefore “estrogenic”) and whether there is selectivity for ERα or ERβ. […] 17β-estradiol is included as a standard reference for comparison. The procedure used is briefly described below. A crude lysate of E. coli expressing the estrogen receptor ligand binding domains (D, E, & F) of human ERα or ERβ was prepared. Both receptors and compounds were diluted in 1× Dulbecco's PBS (DPBS) supplemented with 1 mM EDTA. Using a high binding masked microtiter plate, 100 uL of receptor (1 uG/well) was combined with 2 nM [^3H]-17β-estradiol and various concentrations of compound. After between 5 and 15 hours at room temperature, the plates were washed with DPBS/1 mM EDTA and bound radioactivity determined by liquid scintillation counting.

The target of data set [2] is T2, human ERα (Homo sapiens, UniProt P03372).
T2 construct: made in house; host or cells: E. coli
T2 sequence (P03372 311-547 limits assumed): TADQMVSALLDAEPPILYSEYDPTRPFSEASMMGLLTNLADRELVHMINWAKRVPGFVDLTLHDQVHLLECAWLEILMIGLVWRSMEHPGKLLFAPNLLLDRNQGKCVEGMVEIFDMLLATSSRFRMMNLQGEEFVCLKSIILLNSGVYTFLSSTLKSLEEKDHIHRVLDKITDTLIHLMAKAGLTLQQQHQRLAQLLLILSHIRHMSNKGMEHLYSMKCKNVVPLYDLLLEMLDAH
The data set can be described thus: Competition with [3H]-17β-estradiol for binding to ERα ligand binding domain (E. coli lysate). The settings on record: 2 nM [3H]-17β-estradiol, 5-15 hours at room temperature; concentration that decreases total 17β-estradiol binding by 50%. As to the method: as §1

T1 sequence (Q92731 264-498 limits assumed): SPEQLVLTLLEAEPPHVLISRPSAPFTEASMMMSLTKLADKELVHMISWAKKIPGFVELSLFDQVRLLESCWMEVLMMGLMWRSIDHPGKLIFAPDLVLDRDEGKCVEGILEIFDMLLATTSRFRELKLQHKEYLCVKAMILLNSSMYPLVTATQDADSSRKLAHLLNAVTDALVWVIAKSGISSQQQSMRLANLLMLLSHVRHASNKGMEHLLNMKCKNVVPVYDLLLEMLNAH

Take `ON=Cc1cc(-c2ccc(O)cc2)c2occc2c1` [Example 43, 7-(4-Hydroxyphenyl)-benzofuran-5-carbaldehyde oxime]: the melting point lay within 192 to 194 °C. In data set [1], this compound gave an IC50 of 2210 nM. Moreover, in data set [2], the half-maximal inhibitory concentration (IC50) was more than 5000 nM.

`ON=Cc1ccc(-c2ccc(O)cc2)c2occc12` [Example 25, 7-(4-Hydroxyphenyl)-1-benzofuran-4-carbaldehyde oxime] returned a melting point of 216 to 217 °C.

`ON=Cc1ccc(-c2ccc(O)cc2)c2ccoc12` [Example 31, 4-(4-Hydroxyphenyl)-benzofuran-7-carbaldehyde oxime]: the melting point fell in the range of 219 to 220 °C.

For `ON=Cc1ccc(-c2ccc(O)cc2)c2sccc12` [Example 19, 7-(4-Hydroxyphenyl)-1-benzothiophene-4-carbaldehyde oxime], the melting point lay within 230 to 231 °C.

As for `ON=Cc1ccc(-c2ccc(O)c(F)c2)c2ccccc12` [Example 6, 4-(3-Fluoro-4-hydroxyphenyl)-naphthalene-1-carbaldehyde oxime], the melting point fell in the range of 187 to 188 °C.

In turn, `ON=Cc1ccc(-c2ccc(O)cc2)c2ccsc12` [Example 12, 4-(4-Hydroxyphenyl)-1-benzothiophene-7-carbaldehyde oxime] had a melting point of 229.5 to 230.5 °C.

For the compound `ON=Cc1ccc(-c2ccc(O)cc2)c2ccccc12` [Example 3, 4-(4-Hydroxyphenyl)-1-naphthaldehyde oxime], the melting point lay in the range of 200 to 200.5 °C.

`ON=Cc1cc(-c2ccc(O)cc2)cc2ccoc12` [Example 37, 5-(4-Hydroxyphenyl)-1-benzofuran-7-carbaldehyde oxime]: the 50% inhibitory concentration (IC50) in data set [1] is 326 nM; in data set [2], 3220 nM.
